Measured values taken from US10028992B2, “Methods of treating muscular dystrophy” (BOARD OF REGENTS OF THE NEVADA SYSTEM OF HIGHER EDUCATION …, priority 2012, dated 2018).
Read-outs that look alike come from different tables or passages of the source. Blank lines part the entries; values can stand above or below the compound they belong to.

Test system: α7 integrin promoter
Test: muscle cell-based assay: α7βgal+/− myoblasts/myotubes, LacZ reporter, β-galactosidase cleavage of FDG
Design: species or system mouse; Results in α7+/− β-galactosidase assay: scale not given here
Settings: for Results in α7+/− β-galactosidase assay: Myoblasts; for EC50 / AC50 / Emax: Mus musculus; for EC50: read-out: Fit LogAC50 (converted); for AC50: log of AC50, given with negative sign, unit of AC50 not given, read-out: Fit Log AC50 (converted); for Emax: read-out: Max Response [%]
Summary of the method: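 Primary α7βgal+/− mouse myoblasts (LacZ knocked into α7 integrin exon 1, promoter retained), differentiated; promoter activity read as β-galactosidase conversion of non-fluorescent FDG to fluorescein. Hits followed by dose-response, western analysis and myostatin counterscreen.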

[1] = Table 12, fitted activity at zero concentration
[2] = Table 12 Compound data, concentration-response curve fit
[3] = given as log AC50 (negative values)
[4] = curve class number, key not given
[5] = curve fit, activity at zero concentration

SMILES: CC(C)(C)c1csc(NC(=O)c2cccnc2)n1 [drawing 663]
Results in α7+/− β-galactosidase assay (0.5 uM): 0.2482 | Results in α7+/− β-galactosidase assay (1 uM): 0.1813 | Results in α7+/− β-galactosidase assay (5 uM): 0.09125 | Results in α7+/− β-galactosidase assay (10 uM): 0.06663 | Results in α7+/− β-galactosidase assay (20 uM): −0.2863 | Results in α7+/− β-galactosidase assay (40 uM): −0.3378

SMILES: N#Cc1ccc(Sc2nc3ccccc3[nH]2)cc1C#N [drawing 584]
Results in α7+/− β-galactosidase assay (0.5 uM): 0.3095 | Results in α7+/− β-galactosidase assay (1 uM): 0.07925 | Results in α7+/− β-galactosidase assay (5 uM): 0.2487 | Results in α7+/− β-galactosidase assay (10 uM): 0.1199 | Results in α7+/− β-galactosidase assay (20 uM): 0.003655 | Results in α7+/− β-galactosidase assay (40 uM): −0.1111

SMILES: CNP(=O)(Oc1ccccc1)OC12CC3CC(CC(C3)C1)C2 (stereo not drawn) [Compound 182]
Fit Curve Class: 2.1 | Fit HillSlope: 2.2481 | Fit Zero Activity [%]: −0.8571% | Score: 42 | EC50: 10 µM

SMILES: CC1CCCCN1c1ncnc(N)c1[N+](=O)[O-] (stereo not drawn) [Compound 52]
AC50 (Table 12): 4.47 µM | Emax: 130% | Fit HillSlope (Table 12, curve fit): 1.4781 | Fit Zero Activity [%] [1]: −27.7073% | Fit Curve Class (Table 12, key not given): 2.1 | Score [2]: 46

EC50 [3]: 10 µM
SMILES: COc1cccc(N2C(=O)CC(N3CCc4ccccc4C3)C2=O)c1 (stereo not drawn) [Compound 176]
Score (Table 12 compound data): 42 | Fit Curve Class [4]: 2.1 | Fit HillSlope (curve fit): 4.9549 | Fit Zero Activity [%] [5]: −19.4361%

EC50 [3]: 10 µM
SMILES: Cc1nc2c(cnn2-c2ccccc2)c(=O)n1/N=C/c1ccccc1 [Compound 171]
Score (Table 12 compound data): 42 | Fit Curve Class [4]: 2.2 | Fit HillSlope (curve fit): 3.132 | Fit Zero Activity [%] [5]: 9.9159%

SMILES: CCOC(=O)c1sc(=N)n(-c2ccc(OC)cc2)c1C [Compound 26]
AC50 (Table 12): 2 µM | Emax: 56.1% | Fit HillSlope (Table 12, curve fit): 1.1 | Fit Zero Activity [%] [1]: −36.1807% | Fit Curve Class (Table 12, key not given): 1.1 | Score [2]: 84

SMILES: NC(=O)c1cccnc1Oc1ccc(Cl)cc1Cl [Compound 113]
AC50 (Table 12): 10 µM | Fit HillSlope (Table 12, curve fit): 3.9295 | Fit Zero Activity [%] [1]: −5.8907% | Fit Curve Class (Table 12, key not given): 2.1 | Score [2]: 43

SMILES: COC(=O)Cc1c(O)ccn(Cc2ccc3c(c2)OCO3)c1=O [Compound 80]
AC50 (Table 12): 10 µM | Fit HillSlope (Table 12, curve fit): 1.4163 | Fit Zero Activity [%] [1]: −6.484% | Fit Curve Class (Table 12, key not given): 2.1 | Score [2]: 44

SMILES: C/N=c1\scc(-c2ccc(OC)cc2)n1/N=C(\C)c1cccnc1 [Compound 118]
AC50 (Table 12): 5.01 µM | Fit HillSlope (Table 12, curve fit): 1.6924 | Fit Zero Activity [%] [1]: −7.9176% | Fit Curve Class (Table 12, key not given): 2.2 | Score [2]: 43

SMILES: CN(C)c1ccnc2sc(C(N)=O)c(N)c12 [Compound 87]
Fit HillSlope (Table 12, curve fit): 2.1211 | Fit Zero Activity [%] [1]: 21.3502% | Fit Curve Class (Table 12, key not given): 2.2 | Score [2]: 44

EC50 [3]: 11.2 µM
SMILES: CC(/C=C(\O)c1ccccc1)=N\c1ccc(Br)c(Cl)c1 [Compound 130]
Score (Table 12 compound data): 43 | Fit Curve Class [4]: 2.1 | Fit HillSlope (curve fit): 4.5045 | Fit Zero Activity [%] [5]: 7.8122%

SMILES: COc1ccc(C(=O)Nc2ccc(Cl)cn2)cc1Cl [drawing 498]
Results in a α7+/− β-galactosidase assay, Myotubes, 0.5 uM (Myotubes, compound at 0.5 uM): 0.01557 | Results in a α7+/− β-galactosidase assay, Myotubes, 1 uM (Myotubes, compound at 1 uM): −0.1102 | Results in a α7+/− β-galactosidase assay, Myotubes, 5 uM (Myotubes, compound at 5 uM): −0.4051 | Results in a α7+/− β-galactosidase assay, Myotubes, 10 uM (Myotubes, compound at 10 uM): −0.6189 | Results in a α7+/− β-galactosidase assay, Myotubes, 20 uM (Myotubes, compound at 20 uM): −0.2285 | Results in a α7+/− β-galactosidase assay, Myotubes, 40 uM (Myotubes, compound at 40 uM): −0.2585

SMILES: COc1ccc(Cl)cc1NC(=O)CC(=O)Nc1cc(Cl)ccc1OC [Compound 41]
AC50 (Table 12): 14.1 µM | Emax: 453% | Fit HillSlope (Table 12, curve fit): 4.5045 | Fit Zero Activity [%] [1]: 8.8874% | Fit Curve Class (Table 12, key not given): 2.1 | Score [2]: 48

SMILES: Fc1ccc(-c2ccnc3nc(N4CCN(c5ccccc5)CC4)nn23)cc1 [drawing 649]
Results in α7+/− β-galactosidase assay (0.5 uM): 0.1594 | Results in α7+/− β-galactosidase assay (1 uM): 0.2225 | Results in α7+/− β-galactosidase assay (5 uM): 0.1641 | Results in α7+/− β-galactosidase assay (10 uM): 0.1229 | Results in α7+/− β-galactosidase assay (20 uM): 0.02594 | Results in α7+/− β-galactosidase assay (40 uM): 0.02675
